In ChEMBL document CHEMBL1151318, “New secosteroids from a gorgonian of the genus Muricella” (1998):
Values after ≈ are worked out from the molar mass of the structure shown.

Legend:
[1] = molecular target: Phospholipase A2 (Homo sapiens) (UniProt P04054); test: Inhibition of PLA2 at 50 ug/mL
[2] = tested on: K562; test: Cytotoxicity against human K562 cells; assay type: functional; settings: read-out: LC50 (the source's name)

Phospholipase A2 (Homo sapiens), sequence (P04054 23-148 limits assumed): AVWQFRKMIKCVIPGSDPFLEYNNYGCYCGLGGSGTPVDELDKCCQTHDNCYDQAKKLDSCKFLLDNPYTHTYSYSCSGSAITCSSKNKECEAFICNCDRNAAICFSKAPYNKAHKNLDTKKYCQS

Cc1ccc(O)cc1CC[C@@H]1[C@H](O)CC[C@]2(C)[C@@H]([C@H](C)CCCC(C)C)CC[C@@H]12 [ASTROGORGIADIOL]
inhibition [1]: 47% | CC50 [2]: 12.1 µg/mL (≈ 30.2 µM)

Cc1ccc(O)cc1CC[C@@H]1[C@H](O)CC[C@]2(C)[C@@H]([C@H](C)/C=C/C(C)C(C)C)CC[C@@H]12 (stereo partly drawn) [CALICOFEROL F]
CC50 [2]: 3.2 µg/mL (≈ 7.75 µM)

CC(C)=CCC[C@@H](C)[C@H]1CC[C@H]2[C@H](CCc3cc(O)ccc3C)[C@H](O)CC[C@]12C [CALICOFEROL G]
inhibition [1]: 55% | CC50 [2]: 2.1 µg/mL (≈ 5.27 µM)

Cc1ccc(O)cc1CC[C@@H]1[C@H](O)CC[C@]2(C)[C@@H]([C@H](C)/C=C/C(C)C)CC[C@@H]12 [CALICOFEROL H]
inhibition [1]: 67% | CC50 [2]: 10.7 µg/mL (≈ 27.8 µM)

Cc1ccc(O)cc1CC[C@@H]1C(=O)CC[C@]2(C)[C@@H]([C@H](C)CCCC(C)C)[C@@H](O)C[C@@H]12 [CALICOFEROL I]
CC50 [2]: 9.6 µg/mL (≈ 23.2 µM)
